# Where “and” joins values, the source holds several entries; their conditions need not be identical. Equal values may be shown once.
# Conditions: buffer; pH 7.4; 200.0 µM
row,SMILES,solubility kinetic
1,O=C(O)/C=C\C(=O)Nc1ccccc1N1CCN(c2ccccc2)CC1,52 µg/mL
2,COc1cc([N+](=O)[O-])cc2sc(NC(=O)C3CC3)nc12,0.6 µg/mL
3,O=C(O)CCCCCNCc1c(Cl)cccc1Cl,41.6 µg/mL
4,CN(Cc1ccc(F)cc1)C(=O)CCc1nnc(-c2ccccc2)o1,> 50.9 µg/mL
5,COc1cc(N)c(Cl)cc1C(=O)OCC(=O)c1cccs1,4.2 µg/mL
6,NC1=C(Br)C(=O)c2ccccc2C1=O,37.3 µg/mL
7,CCOC(=O)CSc1nc2ccccc2c(=O)n1CC(C)C,4.2 µg/mL
8,COc1cc(C(=O)N2CCCc3ccccc32)c([N+](=O)[O-])cc1OC,> 51.4 µg/mL
9,CCCN1C2CCCC1CC(NC(=O)NC13CC4CC(CC(C4)C1)C3)C2 (centres undefined),> 53.9 µg/mL
10,O=C(COC(=O)/C=C/c1ccc2c(c1)OCO2)NCc1ccccc1,1.5 µg/mL
11,Cn1c(N)c(C(=O)COC(=O)/C=C/c2ccccc2F)c(=O)n(C)c1=O,5.5 µg/mL
12,COc1ccc(CNC(=O)c2cccnc2)cc1,> 36.3 µg/mL
13,COc1ccc(CNCc2ccncc2)c(OC)c1.Cl,> 44.2 µg/mL
14,Cc1cnc(NC(=O)CC(C)c2ccccc2)s1 (centres undefined),3 µg/mL
15,O=[N+]([O-])c1ccc(NCCc2ccccc2)c(Br)c1,0.7 µg/mL
16,CC(C)C(NC(=O)c1ccccc1F)C(=O)NCC(c1ccco1)N1CCCCC1 (centres undefined),> 62.3 µg/mL
17,CCc1cn([C@H]2C[C@H](O)[C@@H](CO)O2)c(=O)[nH]c1=O,> 38.4 µg/mL
18,CCOC(=O)c1c(O)c2ccccc2n(C)c1=O,> 37.1 µg/mL
19,COC(=O)CSc1nc(C)c2c(n1)CCCC2,37.6 µg/mL
20,FC(F)(F)c1ccc(-n2cn[nH]c2=S)cc1,> 36.8 µg/mL
21,Cc1ccc(C(=O)NCCC(=O)N2CCCC2)cc1,39 µg/mL
22,Cc1ccc(OCC(=O)N2CCc3ccccc3C2)cc1,> 42.2 µg/mL
23,O=C(CN1CCCc2ccccc21)N1CCc2ccccc21,4.8 µg/mL
24,O=Nc1[nH]c(=O)c(/C=C(\O)c2ccccc2)nc1NO,33.8 µg/mL

row,SMILES,solubility kinetic
1,O=c1c2ccccc2[se]n1-c1ccccc1,13.6 µg/mL and 6.6 µg/mL
2,CCCOc1ccc(C2Nc3cccc4cccc(c34)N2)cc1,3.8 µg/mL
3,N#C/C(=C\c1ccc[nH]1)C(=O)Nc1ccccc1[N+](=O)[O-],0.4 µg/mL
4,COc1ccc(C)cc1NC(=O)COC(=O)C1COc2ccccc2O1 (centres undefined),> 53.6 µg/mL
5,Br.COc1ccc(C(=O)CN2Cc3ccccc3C2=N)cc1,> 54.2 µg/mL
6,C=CCNc1nc2ccccc2c(=O)[nH]1,29.1 µg/mL
7,CCNC(=S)N(Cc1cc2c(C)ccc(C)c2[nH]c1=O)C1CCCC1,< 0.3 µg/mL
8,O=C1CSc2ccc(C(=O)O)cc2N1,> 31.4 µg/mL
9,Cc1ccc(C(=O)OC(C)C(=O)Nc2ccc3c(c2)OCO3)c(O)c1 (centres undefined),9.5 µg/mL
10,CSc1ncccc1C(=O)NC1CCN(Cc2ccccc2)CC1,48.1 µg/mL
11,O=C(c1ccc(S(=O)(=O)NCc2ccco2)cc1)N1CCN(c2ccccc2)CC1,9.1 µg/mL
12,COc1cccc(NC(=O)/C=C/c2ccco2)c1,> 36.5 µg/mL
13,COc1ccccc1Nc1ncnc2sccc12,30.1 µg/mL
14,COc1cccc(C(=O)Nc2sc3c(c2C(=O)O)CCCC3)c1,> 49.7 µg/mL
15,COc1ccccc1OCC(O)CN1CCOCC1 (centres undefined),37.4 µg/mL
16,O=C(NCc1ccc(Cl)cc1)c1cc(=O)[nH]c2ccccc12,1.6 µg/mL
17,Cl.Nc1cnn(Cc2ccc(F)cc2)c1,> 34.2 µg/mL
18,Cc1c(Br)ccc(NC(=O)COc2ccccc2C(N)=O)c1C,< 0.4 µg/mL
19,COc1cc(OC)c(N(C)S(=O)(=O)c2cccc(C(=O)OCC(=O)N3CCOCC3)c2)cc1Cl,56.6 µg/mL
20,Cc1ccc(C(=O)NCc2ccc3c(c2)OCO3)cc1,34.8 µg/mL
21,O=C(COC(=O)c1ccc2c(c1)OCCO2)Nc1ccc(F)cc1F,6.9 µg/mL
22,O=C(Nc1cc(=O)[nH]c(=O)[nH]1)c1cc(Cl)ccc1Cl,> 45 µg/mL
23,CC(C)(C)NC(=O)NC(=O)CN1CCc2ccccc21,27.5 µg/mL
24,CC1(C)CC(NC(=O)c2ccccc2)CC(C)(C)N1,> 39.1 µg/mL

row,SMILES,solubility kinetic
1,O=C(NN1CCOCC1)c1ccc(Br)s1,> 43.7 µg/mL
2,CC(C)(C)C(=O)/C=c1\[nH]c(=O)/c(=C\c2ccccc2F)s1,< 0.7 µg/mL
3,Cc1cc(C)n2nc(SCc3ccc(C#N)cc3)nc2n1,> 44.3 µg/mL
4,COc1ccc2oc(=O)c(C(=O)NCCc3ccc(OC)c(OC)c3)cc2c1,< 0.8 µg/mL
5,Cc1ccnc(NC(=O)CNC(=O)c2ccccc2)c1,> 40.4 µg/mL
6,CSc1ncccc1C(=O)OCC(=O)NC(C)C,> 40.2 µg/mL
7,CCOC(=O)c1cc(C#N)c(Nc2ccccc2OC)nc1C(F)(F)F,< 0.3 µg/mL
8,O=C(O)c1ccccc1C(=O)NC1=NN(c2ccccc2)CC1,> 46.4 µg/mL
9,CNc1nc2c(Cl)cc(Cl)cc2s1,< 0.2 µg/mL
10,CC(C)CC(=O)N1CCN(Cc2ccc(C(F)(F)F)cc2)CC1,47.2 µg/mL
11,O=C(O)Cc1ccc(NC(=O)Nc2ccc3c(c2)OCO3)cc1,> 47.1 µg/mL
12,CCOC(=O)c1c(C)n(C)c2cc([N+](=O)[O-])c(O)c([N+](=O)[O-])c12,44.9 µg/mL
13,Cc1ccc(S(=O)(=O)Nc2ccc3nc(C)sc3c2)c(C)c1,30 µg/mL
14,COC(=O)N1CCN(CCc2ccccc2)CC1,> 37.2 µg/mL
15,COc1cccc(C(=O)N2CCN(c3ccccn3)CC2)c1,43.8 µg/mL
16,CCCCN(C(=O)C1CC1)C1CCS(=O)(=O)C1 (centres undefined),> 38.9 µg/mL
17,CC1(C)CC(NC(=O)c2ccc(Cl)c(Cl)c2)CC(C)(C)N1,> 49.4 µg/mL
18,N#Cc1c(-c2cccnc2)cc(-c2ccccc2)nc1N,2.4 µg/mL
19,Cc1ccc(NC(=O)CSc2cccc3cccnc23)c(C)c1,5.2 µg/mL
20,COC(=O)c1ccc(C(=O)Nc2ccc(C(C)C)cc2N)cc1,2.5 µg/mL
21,CC(C)N1C(=O)CCC1C(=O)N1CCN(c2ccc(F)cc2)CC1 (centres undefined),> 50 µg/mL
22,C=CCn1c(O)c(C(CC)=Nc2ccc(NC(C)=O)cc2)c(=O)[nH]c1=O,> 53.5 µg/mL
23,CC(C)(C)C1CCC(=NOC(=O)c2ccc(F)cc2)CC1 (centres undefined),1.3 µg/mL
24,Cc1ccc(S(=O)(=O)NCCN2CCNC2=O)cc1,38.5 µg/mL

row,SMILES,solubility kinetic
1,O=C(O)/C(=C\c1ccco1)NC(=O)c1ccco1,> 37.1 µg/mL
2,Cc1nc(N)ncc1-c1ccc2c(c1)OCO2,10.8 µg/mL
3,O=C(C(=S)N1CCOCC1)c1c[nH]c2ccccc12,> 41.2 µg/mL
4,COc1ccc(CCNC(=O)CCC(=O)NC2CCCC(C)C2C)cc1OC (centres undefined),39.3 µg/mL
5,COc1ccccc1OCCCN1C(=O)C(=O)c2cccc(C)c21,40.1 µg/mL
6,Cc1ccc2nc(Nc3ccccc3)cc(C)c2c1,3.9 µg/mL
7,CCNc1nc(NC(C)C)nc(N(C#N)CC(=O)OC)n1,> 44 µg/mL
8,CN1CCN(C(=O)c2ccccc2[N+](=O)[O-])CC1,31.5 µg/mL
9,O=C(O)c1sccc1S(=O)(=O)N1CCOCC1,> 41.6 µg/mL
10,COc1ccc2nc(NC(=O)Nc3ccccc3)sc2c1,< 0.2 µg/mL
11,Cc1ccc(NC(=O)C(C)N2C(=O)c3ccccc3C2=O)c(C)c1 (centres undefined),29.7 µg/mL
12,O=C(NCc1ccc(Cl)cc1)N1CCN(Cc2ccccc2)CC1,> 51.6 µg/mL
13,CN(CC1COc2ccccc2O1)C(=O)CSc1ncccn1 (centres undefined),> 49.7 µg/mL
14,C/C(=C\c1cccc(Cl)c1)C(=O)c1c(C)cc(C)[nH]c1=O,> 45.3 µg/mL
15,COc1c(C(=O)Nc2ccc(Br)cn2)ccc2ccccc12,< 0.4 µg/mL
16,O=C(OCc1ccc([N+](=O)[O-])cc1Cl)c1cnccn1,> 44.1 µg/mL
17,C=CCNC(=O)c1ccc(CSc2nc3ccccc3s2)cc1,8.2 µg/mL
18,S=c1[nH]ccn1Cc1ccccc1,> 28.5 µg/mL
19,CCCCN(C)C(=O)c1ccc2c(c1)S(=O)(=O)c1ccccc1C2=O,> 53.6 µg/mL
20,O=C(CSc1nccc(=O)[nH]1)NCc1ccc2c(c1)OCO2,> 47.9 µg/mL
21,CC(C1CC1)N(Cc1ccccc1)C(=O)NC(=O)c1ccccc1 (centres undefined),46.1 µg/mL
22,CC1=CCC2C(=O)N(c3ccc(N4CCOCC4)cc3)C(=O)C2C1 (centres undefined),45.3 µg/mL
23,C[C@H](NC(=O)c1ccccc1Cl)C(=O)Nc1ccccc1F,> 48.1 µg/mL
24,O=C(O)Cc1ccc(NC(=O)Cc2ccc3ccccc3c2)cc1,3.7 µg/mL

row,SMILES,solubility kinetic
1,CCCC(=O)Nc1ccc2c(c1)Cc1ccccc1-2,1.5 µg/mL
2,O=C(CCCn1c(=O)[nH]c2ccccc2c1=O)Nc1ccc(F)cc1,7.7 µg/mL
3,CCOC(=O)c1ccc(S(=O)(=O)Nc2cc(S(=O)(=O)N3CCOCC3)ccc2O)cc1,69.5 µg/mL
4,O=C(CCCN1C(=O)c2ccccc2C1=O)NCCCn1ccnc1,49.5 µg/mL
5,CS(=O)(=O)N1Cc2ccccc2CC1C(=O)OCC(=O)NCc1ccccc1 (centres undefined),> 60.4 µg/mL
6,Cc1sc(N)nc1C12CC3CC(CC(C3)C1)C2,3.3 µg/mL
7,NS(=O)(=O)c1ccc(NC(=O)C2C3C=CC(C3)C2C(=O)O)cc1 (centres undefined),> 50.5 µg/mL
8,CCOC(=O)c1sc(NC(=O)CCN2C(=O)C3CCCCC3C2=O)cc1C (centres undefined),15 µg/mL
9,CC1=CC2=NC(=O)/C(=C/c3cccn3Cc3ccccc3)C(=N)N2O1,2.7 µg/mL
10,CC(C)c1ccc(NC(=S)Nc2cccc3ccccc23)cc1,1.8 µg/mL
11,CS(=O)(=O)c1ccccc1C(=O)Nc1ccc(S(=O)(=O)N2CCCC2)cc1,> 61.3 µg/mL
12,CCS(=O)(=O)c1ccc(C(=O)NC)c(Cl)c1Cl,> 44.4 µg/mL
13,Fc1ccc(CNC(=S)NCc2ccccc2)cc1,11 µg/mL
14,COc1ccc(/C=C/C(=O)OCC(=O)NC2CCCCCCC2)cc1,7.6 µg/mL
15,CCOC(=O)Nc1ccc2c(c1)N(C(=O)CN(C)C)c1ccccc1CC2.Cl,57.7 µg/mL
16,O=C1CNC(=S)N1Cc1ccccc1Cl,> 36.1 µg/mL
17,COCCCNC(=O)/C(C#N)=C/c1cc(C)[nH]c1C,> 39.2 µg/mL
18,CCN(c1ccccc1)S(=O)(=O)c1ccc(C(=O)Nc2ccccc2OC)cc1,3.7 µg/mL
19,O=C(CCCSc1nc2ccccc2[nH]1)NC1CCCCC1,> 47.6 µg/mL
20,Cc1ccc(Cn2c(CCC(=O)O)nc3ncccc3c2=O)cc1,> 48.5 µg/mL
21,O=C(Nc1nccs1)c1ccc(Cl)c([N+](=O)[O-])c1,6.9 µg/mL
22,O=c1[nH]cccc1-c1nc2cc(Cl)ccc2n1Cc1ccccc1,5.7 µg/mL
23,O=c1[nH]c2ccccc2nc1CCc1ccccc1,1.4 µg/mL

# From PubChem BioAssay AID1996
